According to patent US10730870B2, “Compounds and methods for the enhanced degradation of targeted proteins” (Arvinas, Inc., priority 2015, dated 2020):

target: VHL (Homo sapiens (Human), UniProt P40337); assay: VHL fluorescence polarization (FP) competition assay; format: binding; conditions: 1% in DMSO

Row | IC50 [µM] | VHL FP Assay IC50 | Structure (SMILES)
1 | 3.89 | – | CC(=O)N[C@H](C(=S)N1C[C@H](O)C[C@H]1C(=O)NCc1ccc(-c2scnc2C)cc1)C(C)C [Example 130, (2S,4R)-1-((S)-2-acetamido-3-methylbutanethioyl)-4-hydroxy-N-(4-(4-methylthiazol-5-yl)benzyl)pyrrolidine-2-carboxamide]
2 | – | Not Active | Cc1ncsc1-c1ccc(CNC(=O)C2(C)C[C@@H](O)CN2C(=O)[C@H](C(C)C)N2Cc3ccccc3C2=O)cc1 (stereo partly shown) [Example 131]
3 | 1.69 | – | Cc1ncsc1-c1ccc(CNC(=O)C2(C)C[C@@H](O)CN2C(=O)[C@H](C(C)C)N2Cc3ccccc3C2=O)cc1 (stereo partly shown) [Example 132]
4 | 1.64 | – | Cc1ncoc1-c1ccc(CNC(=O)[C@@H]2C[C@@H](O)CN2C(=O)[C@H](C(C)C)N2Cc3ccccc3C2=O)cc1 [Example 133, (2S,4R)-4-hydroxy-1-((S)-3-methyl-2-(1-oxoisoindolin-2-yl)butanoyl)-N-(4-(4-methyloxazol-5-yl)benzyl)pyrrolidine-2-carboxamide]
5 | 5.59 | – | CC(C)[C@@H](C(=O)N1C[C@H](O)C[C@H]1C(=O)NCc1ccc(-c2ccno2)cc1)N1Cc2ccccc2C1=O [Example 136, (2S,4R)-4-hydroxy-N-(4-(isoxazol-5-yl)benzyl)-1-((S)-3-methyl-2-(1-oxoisoindolin-2-yl)butanoyl)pyrrolidine-2-carboxamide]
6 | 157 | – | Cc1cc(C(C)(C)C(=O)N2C[C@H](O)C[C@H]2C(=O)NCc2ccc(-c3scnc3C)cc2)on1 [Example 140, (2S,4R)-4-hydroxy-1-(2-methyl-2-(3-methylisoxazol-5-yl)propanoyl)-N-(4-(4-methylthiazol-5-yl)benzyl)pyrrolidine-2-carboxamide]
7 | 134 | – | Cc1ncsc1-c1ccc(CNC(=O)[C@@H]2C[C@@](C)(O)CN2C(=O)[C@H](C(C)C)N2Cc3ccccc3C2=O)cc1 [Example 142, (2S,4R)-4-hydroxy-4-methyl-1-((S)-3-methyl-2-(1-oxoisoindolin-2-yl)butanoyl)-N-(4-(4-methylthiazol-5-yl)benzyl)pyrrolidine-2-carboxamide]
8 | 0.964 | – | CCC(C(=O)N1C[C@H](O)C[C@H]1C(=O)NCc1ccc(-c2scnc2C)cc1)c1cc(C)no1 (stereo partly drawn) [Example 143, (2S,4R)-4-hydroxy-1-(2-(3-methylisoxazol-5-yl)butanoyl)-N-(4-(4-methylthiazol-5-yl)benzyl)pyrrolidine-2-carboxamide]
9 | – | Not active | Cc1ncsc1-c1ccc(CNC(=O)[C@@H]2C[C@@](O)(CO)CN2C(=O)[C@H](C(C)C)N2Cc3ccccc3C2=O)cc1 [Example 144, (2S,4S)-4-hydroxy-4-(hydroxymethyl)-1-((S)-3-methyl-2-(1-oxoisoindolin-2-yl)butanoyl)-N-(4-(4-methylthiazol-5-yl)benzyl)pyrrolidine-2-carboxamide]
10 | 12.4 | – | Cc1ncsc1-c1ccc(CNC(=O)[C@@H]2[C@@H](O)[C@@H](O)CN2C(=O)[C@H](C(C)C)N2Cc3ccccc3C2=O)cc1 [Example 147, (2S,3R,4S)-3,4-dihydroxy-1-((S)-3-methyl-2-(1-oxoisoindolin-2-yl)butanoyl)-N-(4-(4-methylthiazol-5-yl)benzyl)pyrrolidine-2-carboxamide]
11 | 6.2 | – | CCC[C@H](NC(C)=O)C(=O)N1C[C@H](O)C[C@H]1C(=O)NCc1ccc(-c2scnc2C)cc1 [Example 148, (2S,4R)-1-((S)-2-acetamidopentanoyl)-4-hydroxy-N-(4-(4-methylthiazol-5-yl)benzyl)pyrrolidine-2-carboxamide]

target: His-tagged VHL protein (Homo sapiens (Human), UniProt P40337); assay: Surface plasmon resonance (SPR) assay; format: binding; conditions: average of at least N=2, 1:1 fitting
Description: The surface plasmon resonance (SPR) experiments were conducted on a Biacore3000 (GE Healthcare). His-tagged VHL protein was immobilized on a carboxymethylated dextran surface with nitriloacetic acid (NTA), taking advantage of NTA/Ni^2+ chelation. The prepared surface was allowed to equilibrate over three hours in running buffer (Ambion 1×PBS buffer @ pH 7/4, 0.005% Tween, 2% DMSO).
All compounds were prepared in 100% DMSO stock plates with a top concentration of 5 mM in a 3× serial dilution. Compounds were transferred from the stock plate to the assay plate and diluted into running buffer containing no DMSO. All compounds were run as a six-concentration series with a final assay top concentration of 100 uM. Data analysis was performed in Scrubber 2 (BioLogic software, Campbell, Australia). Blanks were subtracted and data was corrected for DMSO using a standard DMSO curve.
Table 2 illustrates VHL inhibition data (i.e., Kd, μM) of examples contained herein in a surface plasmon resonance (SPR) assay.

Row | Kd [µM] | Structure (SMILES)
12 | 0.33 | Cc1cc([C@H](C(=O)N2C[C@H](O)C[C@H]2C(=O)N[C@@H](C)c2ccc(-c3scnc3C)cc2)C(C)C)on1 [Example 205, (2S,4R)-4-hydroxy-N-[(1S)-1-[4-(4-methyl-1,3-thiazol-5-yl)phenyl]ethyl]-1-[(2R)-3-methyl-2-(3-methyl-1,2-oxazol-5-yl)butanoyl]pyrrolidine-2-carboxamide]

system: Androgen Receptor; assay: Androgen receptor ELISA assay (AR degradation) in LNCaP and/or VCaP cells; format: cell-based; conditions: AR PROTACs
Description: Compounds have been evaluated in this assay in LNCaP and/or VCaP cells utilizing similar protocols. The protocols used with VCaP cells are described below. The androgen receptor ELISA assay was performed using PathScan AR ELISA (Cell Signaling Catalog #12850) according to the following assay steps:
VCaP cells are seeded at 30,000 cells/well at a volume of 200 μL/well in VCaP assay medium [Phenol red free RPMI (Gibco Cat #11835-030); 5% Charcoal Stripped (Dextran treated) FBS (Omega Scientific, Cat # FB-04); Pen/Strep Life Technologies (Gibco Cat #: 10378-016); 0.1 nM R1881 (Sigma, Cat # R0908) is added upon the start of the assay, not during initial plating of the cells) in Corning 3904 plates. The cells are grown for a minimum of 3 days.
(2)(i) Make 10× stock plate in media; (ii) transfer 2.5 μL of the 1000× stock to a new 10× stock plate (use 12 channel pipet, start at A (DMSO control) work thru H. When 247.5 μL of media is added to this plate, it will serve as a 10× stock; (iii) make media+1 nM R1881 for making 10× stock plate; (iv) add 247.5 μL of media with 1 nM R1881 to each well of the 10× stock plate, mix.
Then 22 μL of 10× stock is added to cells and incubated for 24h. 1× Cell Signaling Cell lysis buffer is made (Catalogue #9803; comes with the kit)—prepare for 50 μL/well. Keep on ice. Media is aspirated, and 50 μL 1× cell lysis buffer/well is added. The cells are placed on ice for 10 minutes. The solution is mixed and transferred to PCR plate, and centrifuged at 4 C for 10 minutes at 4000 rpm.
5 μL is transferred to fresh plate (use immediately or freeze −80 C); 115 μL ELISA Dilutant is added (0.15 ug/ml-0.075 ug/ml; comes with the PathScan ELISA).
Add 100 μL/well AR Elisa; cover and shake, 37 C for 2 hrs; dump, tap, wash 4×200 μL ELISA wash buffer; add 100 μL/well mouse AR detection Ab; cover and shake, 37 C for 1 hr; dump, tap, wash 4×200 μL ELISA wash buffer; add 100 μL/well anti-mouse—HRP conjugated Ab (comes with the kit); cover and shake, 37 C for 30 min; allow TMB reagent to come to RT; dump, tap, wash 4×200 μL Elisa wash buffer; tap; add 100 μL TMB, shake 5 min—while watching color. Add the stop reagent when light blue color develops. Add 100 μL Stop solution; shake and read at 450 nm.
The results presented in Table 3 were generated using the androgen receptor ELISA Assay described above, where compound potencies were characterized in highest percentage of Androgen Receptor degradation (Dmax) observed.

Row | Structure (SMILES) | Dmax (highest percentage of Androgen Receptor degradation)
13 | Cc1ncsc1-c1ccc([C@H](C)NC(=O)[C@@H]2C[C@@H](O)CN2C(=O)[C@H](C(C)C)n2cc(-c3ccnc(OC4CN(c5ccc(C(=O)N[C@H]6C(C)(C)[C@H](Oc7ccc(C#N)c(Cl)c7)C6(C)C)cn5)C4)c3)cn2)cc1 | +++ (51%≤Dmax≤70%)
14 | Cc1ncsc1-c1ccc([C@H](C)NC(=O)[C@@H]2C[C@@H](O)CN2C(=O)[C@H](C(C)C)n2cc(-c3ccnc(OC4CN(c5ncc(C(=O)NC6C(C)(C)C(Oc7ccc(C#N)c(Cl)c7)C6(C)C)cn5)C4)c3)cn2)cc1 (stereo partly shown) | +++ (51%≤Dmax≤70%)
15 | Cc1ncsc1-c1ccc([C@H](C)NC(=O)[C@@H]2C[C@@H](O)CN2C(=O)[C@H](C(C)C)n2cc(OCCCOCCC(O)CCOc3ccc(N4C(=S)N(c5ccc(C#N)c(C(F)(F)F)c5)C(=O)C4(C)C)cc3)cn2)cc1 (stereo partly shown) | +++ (51%≤Dmax≤70%)
16 | Cc1ncsc1-c1ccc(CNC(=O)[C@@H]2C[C@@H](O)CN2C(=O)C(C(C)C)n2cc(OC3CCN(c4ccc(-c5ccc(N6C(=S)N(c7ccc(C#N)c(C(F)(F)F)c7)C(=O)C6(C)C)cc5)cn4)CC3)cn2)cc1 (stereo partly shown) | ++ (26%≤Dmax≤50%)
17 | Cc1ncsc1-c1ccc([C@H](C)NC(=O)[C@@H]2C[C@@H](O)CN2C(=O)[C@H](C(C)C)n2cc(-c3ccnc(N4CCC(Nc5ccc(C(=O)N[C@H]6C(C)(C)[C@H](Oc7ccc(C#N)c(Cl)c7)C6(C)C)cc5)C4)c3)cn2)cc1 (stereo partly shown) | ++ (26%≤Dmax≤50%)

system: BRD4; assay: BRD4 c-myc ELISA assay in 22RV-1 cells; format: cell-based; conditions: 18 hrs
Description: 22RV-1 cells were seeded at 30,000 cells/well at a volume of 75 μL/well in RPMI +10% FBS media in 96-well plates and grown overnight at 37 C. Cells were dosed with compounds at 4× concentration diluted in 0.4% DMSO; compounds were serially diluted 1:3 for 8-point dose curve. 25 ul of compound was added to cells for a final concentration starting at 300 nM-0.3 nM in 0.1% DMSO and incubated for 18 hrs. Media was aspirated, cells washed 1× with PBS and aspirated. Cells were lysed in 50 ul RIPA buffer (50 mM Tris pH8, 150 mM NaCl, 1% Tx-100, 0.1% SDS, 0.5% sodium deoxycholate) supplemented with protease and phosphatase inhibitors. Plates were incubated on ice for 15 minutes then centrifuged at 4° C. for 10 min at 4000 rpm. Added 50 ul of cleared lysate from 96-well assay plate into 96-well c-myc ELISA plate (Novex, Life Technologies Catalog # KH02041). […] The rest of the assay was performed following the protocol from the c-myc ELISA kit. Data was analyzed and plotted using GraphPad Prism software.

Row | Structure (SMILES) | cMyc Imax
18 | Cc1ncsc1-c1ccc([C@H](C)NC(=O)[C@@H]2C[C@@H](O)CN2C(=O)[C@H](C(C)C)n2cc(-c3ccnc(O[C@H]4C[C@H](NC(=O)C[C@@H]5N=C(c6ccc(Cl)cc6)c6c(sc(C)c6C)-n6c(C)nnc65)C4)c3)cn2)cc1 | ++++ (71%≤Imax)
19 | Cc1ncsc1-c1ccc([C@H](C)NC(=O)[C@@H]2C[C@@H](O)CN2C(=O)[C@H](C(C)C)n2cc(-c3ccnc(N4CC[C@H](NC(=O)C[C@@H]5N=C(c6ccc(Cl)cc6)c6c(sc(C)c6C)-n6c(C)nnc65)C4)c3)cn2)cc1 | ++++ (71%≤Imax)
20 | Cc1ncsc1-c1ccc([C@H](C)NC(=O)[C@@H]2C[C@@H](O)CN2C(=O)[C@@H](C(C)C)n2cc(-c3ccnc(O[C@H]4C[C@H](NC(=O)C[C@@H]5N=C(c6ccc(Cl)cc6)c6c(sc(C)c6C)-n6c(C)nnc65)C4)c3)cn2)cc1 | +++ (51%≤Imax≤70%)
21 | Cc1ncsc1-c1ccc([C@H](C)NC(=O)[C@@H]2C[C@@H](O)CN2C(=O)[C@@H](n2cc(-c3ccnc(O[C@H]4C[C@@H](NC(=O)C[C@@H]5N=C(c6ccc(Cl)cc6)c6c(sc(C)c6C)-n6c(C)nnc65)C4)c3)cn2)C(C)(C)C)cc1 | ++++ (71%≤Imax)
22 | Cc1ncsc1-c1ccc(CNC(=O)[C@@H]2C[C@@H](O)CN2C(=O)[C@H](C(C)C)n2cc(-c3cccc(O[C@H](C)CNC(=O)C[C@@H]4N=C(c5ccc(Cl)cc5)c5c(sc(C)c5C)-n5c(C)nnc54)c3)cn2)cc1 | ++++ (71%≤Imax)
